Consider 4 compounds from patent publication US11089783B2, “2-(het)aryl-substituted fused heterocycle derivatives as pesticides” (Bayer Aktiengesellschaft, priority 2017, dated 2021).

Type in all cases: in vivo
The subject of one assay is Ctenocephalides felis. Kind of assay: Ctenocephalides felis oral test. Particulars: 100 ppm, after 2 days. The protocol: Solvent: dimethyl sulfoxide To produce a suitable active ingredient formulation, 10 mg of active ingredient are mixed with 0.5 ml of dimethyl sulfoxide. Dilution with citrated cattle blood gives the desired concentration. About 20 unfed adult cat fleas (Ctenocephalides felis) are placed into a chamber which is closed at the top and bottom with gauze. A metal cylinder whose bottom end is closed with parafilm is placed onto the chamber. The cylinder contains the blood/active ingredient formulation, which can be imbibed by the fleas through the parafilm membrane. After 2 days, the kill in % is determined. 100% means that all of the fleas have been killed; 0% means that none of the fleas have been killed.

In assay [1] the test system is Myzus persicae. The assay can be described thus: Myzus persicae oral test. The following applies: 120 h, after 5 days, read-out: efficacy. In outline:
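Compound solution in IPL41 insect medium with sugar was sealed under parafilm, through which a mixed population of green peach aphids fed. Mortality was scored after 5 days as % efficacy, with 100% meaning all aphids killed.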

The subject of another assay is Lucilia cuprina. Kind of assay: Lucilia cuprina test. Particulars: 48 h, L1 larvae, after 2 days, read-out: efficacy (kill). In outline:
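About 20 L1 larvae of Lucilia cuprina placed on minced horsemeat containing compound (DMSO stock diluted in water to test concentration). Kill (%) scored after 2 days; 100% = all larvae dead, 0% = none dead.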

The test system of assay [2] is Myzus persicae. Kind of assay: Myzus persicae spray test (MYZUPE), Chinese cabbage leaf discs. Particulars: Myzus persicae, foliar, 120 h; for Emax at 4 g/ha: MYZUPE, 5 dat, read-out: % efficacy. In outline: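 Leaf discs of Chinese cabbage carrying all stages of green peach aphid were sprayed with compound formulated in solvent and diluted with water containing emulsifier at 1000 ppm. Percent efficacy (100% = all aphids dead) was scored after 5 days or after the desired time.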

In a further assay the test system is Phaedon cochleariae. The assay can be described thus: Phaedon cochleariae spray test (PHAECO), Chinese cabbage leaf discs. The following applies: Phaedon cochleariae, foliar, 168 h; for pest or weed control at 100 g/ha: 7 days (7 dat), read-out: efficacy. The essentials:
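Chinese cabbage (Brassica pekinensis) leaf discs sprayed with compound in water with 1000 ppm emulsifier, then after drying infested with Phaedon cochleariae larvae. Efficacy (% larvae killed) scored after 7 days or the chosen interval.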

In another assay the test system is Meloidogyne incognita. Kind of assay: Meloidogyne incognita test (MELGIN). Particulars: Meloidogyne incognita, 336 h, 14 days (14 dat), read-out: efficacy (nematicidal, gall formation). The essentials: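 Sand with lettuce seeds, M. incognita egg/larvae suspension and aqueous dilution of compound concentrate. Nematicidal efficacy scored from gall (root-knot) formation after 14 days or the desired time, as % relative to untreated control (100% = no galls; 0% = as control).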

For the next assay, the system named is Nezara viridula. Kind of assay: Nezara viridula spray test (NEZARA / NEZAVI). The following applies: Nezara viridula, 96 h, 4 g/ha, 4 dat, read-out: % efficacy. In outline: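 Barley plants infested with Nezara viridula larvae were sprayed with active ingredient in solvent/emulsifier water (1000 ppm emulsifier; ammonium salt or penetrant at 1000 ppm if added). Efficacy scored as % mortality after the set time (100% = all bugs killed).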

Setting [3] is: 5 days (5 dat), read-out: efficacy.

Turning to `CCS(=O)(=O)c1ccc(NC(=O)NC)nc1-c1nc2cc(C(F)(F)C(F)(F)F)nnc2n1C` [Example I-08, 1-{5-(ethylsulfonyl)-6-[7-methyl-3-(pentafluoroethyl)-7H-imidazo[4,5-c]pyridazin-6-yl]pyridin-2-yl}-3-methylurea], in the assay with Ctenocephalides felis, the “efficacy (kill)” value was determined as 100%. Further, the pest or weed control at 0.8 ppm with Myzus persicae [1] was 90%. For the same compound, in the assay on Lucilia cuprina, the pest or weed control at 100 ppm amounted to 100%. In the assay on Myzus persicae [2] (setting [3]), the pest or weed control at 20 g/ha is 100%. Moreover, the pest or weed control at 100 g/ha in the assay on Myzus persicae [2] (100 g/ha, 5 days (5 dat), read-out: efficacy) stood at 90%; with Phaedon cochleariae it was 100%. In addition, in the assay with Meloidogyne incognita, the pest or weed control at 20 ppm was found to be 100%. The Emax at 4 g/ha with Nezara viridula is 90%.
For `CCS(=O)(=O)c1ccc(N(C)C(=O)NC)nc1-c1nc2cc(C(F)(F)C(F)(F)F)nnc2n1C` [Example I-09], the “efficacy (kill)” value with Ctenocephalides felis was found to be 100%. The pest or weed control at 0.8 ppm in the assay on Myzus persicae [1] turned out to be 90%. In addition, in the assay with Lucilia cuprina, the pest or weed control at 100 ppm worked out at 100%. Moreover, the Emax at 4 g/ha with Myzus persicae [2] is 70%; in the assay on Phaedon cochleariae (PHAECO, 4 g/ha, 7 dat, read-out: % efficacy), 83%; in the assay with Nezara viridula, 70%. In addition, the pest or weed control at 20 g/ha in the assay on Myzus persicae [2] (setting [3]) came out at 100%. In addition, the pest or weed control at 100 g/ha in the assay with Phaedon cochleariae turned out to be 100%. The compound further yielded a percent efficacy (larval mortality) at a fixed application rate at 20 g/ha in the assay on Phaedon cochleariae (PHAECO, 7 dat) of 100%. Besides, in the assay on Meloidogyne incognita, the pest or weed control at 20 ppm came out at 100%.
For the compound `CCS(=O)(=O)c1ccc(NC(=O)N(C)C)nc1-c1nc2cc(C(F)(F)C(F)(F)F)nnc2n1C` [Example I-10], the “efficacy (kill)” value in the assay on Ctenocephalides felis is 100%. Besides, the pest or weed control at 0.8 ppm with Myzus persicae [1] is 100%. Further, the pest or weed control at 100 ppm in the assay with Lucilia cuprina came out at 100%. Also, the values for the Emax at 4 g/ha in the assay on Myzus persicae [2] and with Nezara viridula were 70% and 80%, respectively. Moreover, the pest or weed control at 20 g/ha in the assay on Myzus persicae [2] (setting [3]) turned out to be 100%. For the same compound, in the assay with Phaedon cochleariae, the pest or weed control at 100 g/ha came out at 100%. In addition, the pest or weed control at 20 ppm in the assay with Meloidogyne incognita came to 100%.
Regarding `CCNC(=O)Nc1ccc(S(=O)(=O)CC)c(-c2nc3cc(C(F)(F)C(F)(F)F)nnc3n2C)n1` [Example I-13], in the assay on Ctenocephalides felis, the “efficacy (kill)” value was 100%. Further, the pest or weed control at 0.8 ppm with Myzus persicae [1] turned out to be 100%. In addition, the pest or weed control at 100 ppm with Lucilia cuprina turned out to be 100%. Moreover, the pest or weed control at 20 g/ha with Myzus persicae [2] (setting [3]) is 90%. Moreover, the pest or weed control at 100 g/ha in the assay on Phaedon cochleariae was found to be 100%. Further, in the assay with Phaedon cochleariae (PHAECO, 4 g/ha, 7 dat), the percent efficacy (larval mortality) at a fixed application rate at 4 g/ha was determined as 100%. This compound displayed a percent efficacy (larval mortality) at a fixed application rate at 20 g/ha in the assay with Phaedon cochleariae (PHAECO, 7 dat) of 100%. In the assay on Meloidogyne incognita, the pest or weed control at 20 ppm amounted to 100%. Besides, the Emax at 4 g/ha in the assay on Nezara viridula was determined as 80%.
